Data from publication PMC7092826 (Biochemical Pharmacology, 2008).
Values joined by “and” are separate entries in the source; they are usually repeats but may differ in a detail not shown here. Equal entries are not always repeated.

Experiments:
SARS-CoV PLpro [1] = biological target: T1, SARS-CoV PLpro (Severe acute respiratory syndrome coronavirus, UniProt P0C6U8); experiment: biochemical; assay type: biochemical
SARS-CoV PLpro [2] = biological target: T1, SARS-CoV PLpro; assay type: biochemical
SARS-CoV PLpro [3] = biological target: T1, SARS-CoV PLpro; assay type: biochemical; remark: listed apart in the source
SARS-CoV PLpro [4] = biological target: T1, SARS-CoV PLpro; experiment: biochemical; assay type: biochemical; conditions: for Ki: Kis
SARS-CoV PLpro [5] = biological target: T1, SARS-CoV PLpro; experiment: biochemical; assay type: biochemical; conditions: for remaining activity at 200 µM: read-out: residual activity of PLpro
cathepsin B = cathepsin B (Homo sapiens, UniProt P07858); assay type: biochemical
cathepsin K = biological target: T2, cathepsin K (Homo sapiens, UniProt P43235); assay type: biochemical
T2 sequence (P43235 115-329): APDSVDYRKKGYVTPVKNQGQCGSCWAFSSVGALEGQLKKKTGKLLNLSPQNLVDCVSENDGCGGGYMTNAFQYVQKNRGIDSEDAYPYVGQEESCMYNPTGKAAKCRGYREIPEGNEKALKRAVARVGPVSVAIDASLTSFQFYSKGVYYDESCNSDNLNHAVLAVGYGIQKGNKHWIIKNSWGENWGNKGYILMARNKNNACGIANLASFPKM

cathepsin L = cathepsin L (Homo sapiens, UniProt P07711); assay type: biochemical
cathepsin S = cathepsin S (Homo sapiens, UniProt P25774); assay type: biochemical
papain = biological target: T3, papain (Carica papaya, UniProt P00784); assay type: biochemical
T3 sequence (P00784 134-345): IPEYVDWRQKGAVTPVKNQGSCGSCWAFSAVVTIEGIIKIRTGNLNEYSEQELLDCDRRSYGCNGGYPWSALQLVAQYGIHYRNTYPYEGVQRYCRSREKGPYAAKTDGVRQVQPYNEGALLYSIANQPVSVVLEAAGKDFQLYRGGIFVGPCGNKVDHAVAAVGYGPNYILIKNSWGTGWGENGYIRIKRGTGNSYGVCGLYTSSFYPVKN

SARS-CoV 3CLpro = SARS-CoV 3CLpro (Severe acute respiratory syndrome coronavirus, UniProt P0C6U8); experiment: biochemical; conditions: read-out: residual activity of 3CLpro

cathepsin S, sequence (P25774 115-331): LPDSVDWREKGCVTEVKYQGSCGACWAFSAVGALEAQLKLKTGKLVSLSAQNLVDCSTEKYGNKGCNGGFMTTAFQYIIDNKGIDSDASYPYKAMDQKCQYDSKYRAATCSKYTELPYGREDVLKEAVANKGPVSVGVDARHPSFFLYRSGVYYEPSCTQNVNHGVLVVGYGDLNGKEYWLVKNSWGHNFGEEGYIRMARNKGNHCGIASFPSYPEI
cathepsin L, sequence (P07711 114-333, species assumed): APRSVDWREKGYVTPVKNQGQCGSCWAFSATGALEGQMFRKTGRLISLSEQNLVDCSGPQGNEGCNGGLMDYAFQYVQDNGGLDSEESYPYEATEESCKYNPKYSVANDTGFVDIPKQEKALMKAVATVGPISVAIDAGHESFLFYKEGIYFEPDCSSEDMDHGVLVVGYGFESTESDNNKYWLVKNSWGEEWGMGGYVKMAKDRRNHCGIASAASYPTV

Sc1ncnc2nc[nH]c12 [compound 1, 6-Mercaptopurine]
IC50 (SARS-CoV PLpro [1]): 21.6 ± 1.8 µM
inhibition of the deubiquitinating activity of PLpro (SARS-CoV PLpro [2]): effectively inhibited
enzymatic activity after gel filtration of the inhibited enzyme (reversibility) (SARS-CoV PLpro [3]): restored
inhibition pattern (SARS-CoV PLpro [4]): competitive
kcat (SARS-CoV PLpro [4]): 0.13 ± 0.01 s⁻¹
Ki (SARS-CoV PLpro [4]): 19 µM and 19.2 µM
binding mechanism (SARS-CoV PLpro [5]): slow-binding inhibitors
kmax (SARS-CoV PLpro [5]): 1.2 ± 0.1 10^−4 s^−1
kmax of inactivation (SARS-CoV PLpro [5]): 0.12 ms^−1
remaining activity at 200 µM (SARS-CoV PLpro [5]): < 5%
inhibition of cathepsin B (cathepsin B): not effective inhibitors
inhibition of cathepsin K (cathepsin K): not effective inhibitors
inhibition of cathepsin L (cathepsin L): not effective inhibitors
inhibition of cathepsin S (cathepsin S): not effective inhibitors
inhibition of papain (papain): not effective inhibitors

Nc1nc2nc[nH]c2c(=S)[nH]1 [compound 2, 6-Thioguanine]
IC50 (SARS-CoV PLpro [1]): 5 ± 1.7 µM
inhibition of the deubiquitinating activity of PLpro (SARS-CoV PLpro [2]): effectively inhibited
enzymatic activity after gel filtration of the inhibited enzyme (reversibility) (SARS-CoV PLpro [3]): restored
inhibition pattern (SARS-CoV PLpro [4]): competitive
kcat (SARS-CoV PLpro [4]): 0.14 ± 0.02 s⁻¹
Ki (SARS-CoV PLpro [4]): 13 ± 2.8 µM
binding mechanism (SARS-CoV PLpro [5]): slow-binding inhibitors
kmax (SARS-CoV PLpro [5]): 9.2 ± 0.9 10^−4 s^−1
kmax of inactivation (SARS-CoV PLpro [5]): 0.92 ms^−1
remaining activity at 200 µM (SARS-CoV PLpro [5]): < 5%
remaining activity at 200 µM (SARS-CoV 3CLpro): 25%
inhibition of cathepsin B (cathepsin B): not effective inhibitors
inhibition of cathepsin K (cathepsin K): not effective inhibitors
inhibition of cathepsin L (cathepsin L): not effective inhibitors
inhibition of cathepsin S (cathepsin S): not effective inhibitors
inhibition of papain (papain): not effective inhibitors

O=c1[nH]cnc2nc[nH]c12 [compound 3, Hypoxanthine]
inhibitory activity against PLpro (SARS-CoV PLpro [1]): devoid of inhibitory activity

CSc1ncnc2nc[nH]c12 [compound 4, 6-Methyl-mercaptopurine]
inhibitory activity against PLpro (SARS-CoV PLpro [1]): devoid of inhibitory activity

CCN1C(=O)C=CC1=O [compound 6, N-ethylmaleimide]
IC50 (SARS-CoV PLpro [1]): 4.4 ± 1 µM
